Measurements from paper PMC6262408, “Recovery of the Peptidoglycan Turnover Product Released by the Autolysin Atl in Staphylococcus aureus Involves the Phosphotransferase System Transporter MurP and the Novel 6-phospho-N-acetylmuramidase MupG” (Frontiers in Microbiology, 2018).

Biological target: T1, MupG (Staphylococcus aureus, UniProt A0A0H2XHV5)
T1 sequence (A0A0H2XHV5 1-351): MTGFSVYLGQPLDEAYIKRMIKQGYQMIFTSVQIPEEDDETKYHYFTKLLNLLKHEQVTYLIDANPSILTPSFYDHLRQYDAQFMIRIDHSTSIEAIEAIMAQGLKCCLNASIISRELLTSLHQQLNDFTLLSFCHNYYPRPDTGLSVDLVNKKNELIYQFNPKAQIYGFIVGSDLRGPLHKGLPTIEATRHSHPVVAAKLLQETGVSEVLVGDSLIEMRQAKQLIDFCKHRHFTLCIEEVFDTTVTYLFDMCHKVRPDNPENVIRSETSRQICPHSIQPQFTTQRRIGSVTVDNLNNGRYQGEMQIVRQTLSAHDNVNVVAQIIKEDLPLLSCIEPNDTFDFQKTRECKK
Test: LC-MS of hydrolysis by recombinant enzyme
Format: biochemical
Conditions: substrate in acetone extract of ΔmupG cytosol; 1 μg enzyme, 2.5 h, 37 °C; products MurNAc 6P and GlcNAc

SMILES: CC(=O)N[C@H]1[C@H](O[C@H]2[C@H](O)[C@@H](NC(C)=O)C(O)O[C@@H]2CO)O[C@H](COP(=O)(O)O)[C@@H](O)[C@@H]1O[C@H](C)C(=O)O (stereo partly shown) [MurNAc 6P-GlcNAc]
- LC-MS of hydrolysis by recombinant enzyme: recombinantly produced MupG cleaved MurNAc 6P-GlcNAc, releasing MurNAc 6P and GlcNAc
